Source: patent US20250073138A1, “Lipid-based nanoparticles for enhancing percutaneous absorption and manufacturing method thereof” (COSMECCA KOREA CO., LTD., priority 2023, published 2025)

Tested on: HaCaT, a human keratinocyte cell line
Assay: Live/dead fluorescence staining cytotoxicity
Type: cell-based
Settings: treated at different concentrations for 24 h, calcein-AM / ethidium homodimer
Protocol: First, HaCaT, a human keratinocyte cell line, was treated with tannic acid, TAMA, and TAMA-introduced nanoparticles (TANV) at different concentrations for 24 h. Thereafter, calcein-acetoxymethyl ester (calcein-AM), which stains viable cells, and ethidium homodimer, which stains dead cells, were treated simultaneously, and then washed twice with the PBS buffer solution to obtain images of viable and dead cells through fluorescence microscopy.

| Molecule | cytotoxicity (live/dead assay) |
| --- | --- |
| tannic acid-maleimide [TAMA] | a slight level of cytotoxicity |
| O=C(OC[C@H]1O[C@@H](OC(=O)c2cc(O)c(O)c(OC(=O)c3cc(O)c(O)c(O)c3)c2)[C@H](OC(=O)c2cc(O)c(O)c(OC(=O)c3cc(O)c(O)c(O)c3)c2)[C@@H](OC(=O)c2cc(O)c(O)c(OC(=O)c3cc(O)c(O)c(O)c3)c2)[C@@H]1OC(=O)c1cc(O)c(O)c(OC(=O)c2cc(O)c(O)c(O)c2)c1)c1cc(O)c(O)c(OC(=O)c2cc(O)c(O)c(O)c2)c1 [tannic acid] | cytotoxicity and death occurred significantly |
